Data from patent US10385019B2, “Inhibitors of EGFR and methods of use thereof” (Dana-Farber Cancer Institute, Inc., priority 2015, dated 2019).

Target: EGFR T790M/L858R Ba/F3 cell line (Homo sapiens, UniProt P00533, T790M/L858R, cells depend on it)
Assay: Ba/F3 cell proliferation model
Format: cell-based, murine
Conditions: combined with cetuximab (% cetuximab, 1.0 μM drug concentration with 1.0 μg/mL cetuximab)
Text: The selectivity between wild-type EGFR and EGFR containing one or more mutations as described herein can also be measured using cellular proliferation assays where cell proliferation is dependent on kinase activity. For example, murine Ba/F3 cells transfected with a suitable version of wild-type EGFR (such as VIII; containing a WT EGFR kinase domain), or Ba/F3 cells transfected with L858R/T790M, Del/T790M/L718Q, L858R/T790M/L718Q, L858R/T790M/C797S, Del/T790M/C797S, L858R/T790M/I941R, or Exon 19 deletion/T790M can be used.
Cell lines are plated in media. The compounds of the present disclosure are then serially diluted and transferred to the cells. Cell viability is measured via a luminescent readout. Data is analyzed by non-linear regression curve-fitting. […]
The EGFR mutant L858R, Del E746_A750, L858R/T790M, DelE746_A750/T790M, L858R/T790M/C797S and Del/T790M/C797S Ba/F3 cells have been previously described (Zhou, W., Ercan, D., Chen, L., Yun, C. H., Li, D., Capelletti, M., Cortot, A. B., Chirieac, L., Iacob, R. E., Padera, R., et al. “Novel mutant-selective EGFR kinase inhibitors against EGFR T790M,” Nature 462, (2009), 1070-1074). All cell lines were maintained in RPMI 1640 (Cellgro; Mediatech Inc., Herndon, Calif.) supplemented with 10% FBS 100 units/mL penicillin, 100 units/mL streptomycin, and 2 mM glutamine. L858R cells were maintained in ACL-4 media (Invitrogen, Carlsbad, Calif.) supplemented with 5% FBS, 100 units/mL penicillin, 100 units/mL streptomycin, and 2 mM glutamine. The EGFR I941R mutation was introduced via site directed mutagenesis using the Quick Change Site-Directed Mutagenesis kit (Stratagene; La Jolla, Calif.) according to the manufacturer's instructions. All constructs were confirmed by DNA sequencing. The constructs were shuttled into the retroviral vector JP 1540 using the BD Creator™ System (BD Biosciences). Ba/F3 cells were infected with retrovirus and according to standard protocols, as described previously (Zhou et al, Nature 2009). Stable clones were obtained by selection in puromycin (2 μg/ml).
Growth and inhibition of growth was assessed by MTS assay and was performed according to previously established methods (Zhou et al., Nature 2009). The MTS assay is a colorimetric method for determining the number of viable cells that is based on the bioreduction of MTS by cells to a formazan product that is soluble in cell culture medium and can be detected spectrophotometrically. Ba/F3 cells of different EGFR genotypes were exposed to treatment for 72 hours and the number of cells used per experiment determined empirically and has been previously established (Zhou et al., Nature 2009). All experimental points were set up in six wells and all experiments were repeated at least three times. […] The curves were fitted using a non-linear regression model with a sigmoidal dose response.
Inhibition data of an EGFR T790M/L858R Ba/F3 cell line.

Chain of EGFR T790M/L858R Ba/F3 cell line (P00533 whole entry T790M/L858R): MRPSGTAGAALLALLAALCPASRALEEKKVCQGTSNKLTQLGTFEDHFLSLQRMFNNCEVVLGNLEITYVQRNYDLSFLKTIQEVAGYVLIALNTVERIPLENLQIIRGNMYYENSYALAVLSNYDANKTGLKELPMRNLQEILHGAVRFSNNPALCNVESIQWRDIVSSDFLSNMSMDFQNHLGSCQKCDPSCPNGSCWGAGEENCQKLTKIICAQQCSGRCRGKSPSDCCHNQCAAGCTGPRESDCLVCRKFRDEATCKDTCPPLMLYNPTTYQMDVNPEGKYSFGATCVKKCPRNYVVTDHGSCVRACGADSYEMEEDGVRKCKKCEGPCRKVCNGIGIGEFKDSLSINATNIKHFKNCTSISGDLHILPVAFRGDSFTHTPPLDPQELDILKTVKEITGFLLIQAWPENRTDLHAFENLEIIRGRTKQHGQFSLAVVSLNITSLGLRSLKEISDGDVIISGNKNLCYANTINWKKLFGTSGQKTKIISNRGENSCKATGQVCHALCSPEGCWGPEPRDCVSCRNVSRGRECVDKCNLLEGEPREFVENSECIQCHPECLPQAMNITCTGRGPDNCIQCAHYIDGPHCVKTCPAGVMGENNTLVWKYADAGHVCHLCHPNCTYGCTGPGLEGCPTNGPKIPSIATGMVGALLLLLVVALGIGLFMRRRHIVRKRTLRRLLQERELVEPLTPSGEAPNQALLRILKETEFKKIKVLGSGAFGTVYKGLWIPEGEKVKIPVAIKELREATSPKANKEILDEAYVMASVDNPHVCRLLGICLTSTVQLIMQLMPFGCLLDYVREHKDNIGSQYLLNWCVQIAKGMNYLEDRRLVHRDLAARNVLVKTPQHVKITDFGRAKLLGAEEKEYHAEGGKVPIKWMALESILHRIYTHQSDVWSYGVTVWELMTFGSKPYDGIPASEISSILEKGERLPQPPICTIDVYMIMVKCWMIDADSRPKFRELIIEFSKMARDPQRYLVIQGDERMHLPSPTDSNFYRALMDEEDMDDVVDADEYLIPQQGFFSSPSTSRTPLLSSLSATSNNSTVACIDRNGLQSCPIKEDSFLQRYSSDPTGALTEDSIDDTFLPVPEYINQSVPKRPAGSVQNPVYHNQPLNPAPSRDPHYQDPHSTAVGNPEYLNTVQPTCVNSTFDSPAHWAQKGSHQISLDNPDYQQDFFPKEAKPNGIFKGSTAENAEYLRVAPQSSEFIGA

Row | Compound | Activity (% inhibition)
1 | CN(C(=O)[C@@H](c1ccccc1)N1Cc2ccccc2C1=O)c1nccs1 [Compound I-58, (R)-N-methyl-2-(1-oxoisoindolin-2-yl)-2-phenyl-N-(thiazol-2-yl)acetamide] | B (a % inhibition of between about 50% to about 75%)
2 | O=C(Nc1cnoc1)[C@@H](c1ccccc1)N1Cc2ccc(-c3ccc4[nH]ccc4c3)cc2C1=O [Compound I-130, (R)-2-(6-(1H-indol-5-yl)-1-oxoisoindolin-2-yl)-N-(isoxazol-4-yl)-2-phenylacetamide] | C (a % inhibition of between about 25% to about 50%)
3 | O=C(Nc1nccs1)[C@@H](c1ccccc1)N1Cc2ccc(-c3cccc(C(=O)N4CCOCC4)c3)cc2C1=O [Compound I-92, (R)-2-(6-(3-(morpholine-4-carbonyl)phenyl)-1-oxoisoindolin-2-yl)-2-phenyl-N-(thiazol-2-yl)acetamide] | C (a % inhibition of between about 25% to about 50%)
4 | O=C(Nc1ncccc1F)[C@@H](c1ccccc1)N1Cc2ccccc2C1=O [Compound I-56, (R)-N-(3-fluoropyridin-2-yl)-2-(1-oxoisoindolin-2-yl)-2-phenylacetamide] | B (a % inhibition of between about 50% to about 75%)
5 | O=C(Nc1cccnc1)[C@@H](c1ccccc1)N1Cc2ccccc2C1=O [Compound I-7, (R)-2-(1-oxoisoindolin-2-yl)-2-phenyl-N-(pyridin-3-yl) acetamide] | A (a % inhibition of about 75%)
6 | O=C(Nc1nccs1)[C@@H](c1ccccc1)N1Cc2ccc(-c3ccc(F)cc3)cc2C1=O [Compound I-77, (R)-2-(6-(4-fluorophenyl)-1-oxoisoindolin-2-yl)-2-phenyl-N-(thiazol-2-yl)acetamide] | B (a % inhibition of between about 50% to about 75%)
7 | O=C(Nc1nc(C(=O)N2CCC(N3CCOCC3)CC2)cs1)[C@@H](c1ccccc1)N1Cc2ccccc2C1=O [Compound I-24, (R)-N-(4-(4-morpholinopiperidine-1-carbonyl)thiazol-2-yl)-2-(1-oxoisoindolin-2-yl)-2-phenylacetamide] | A (a % inhibition of about 75%)
8 | O=C(Nc1nccs1)[C@@H](c1ccccc1)N1Cc2ccc(-c3cccc4cccnc34)cc2C1=O [Compound I-71, (R)-2-(1-oxo-6-(quinolin-8-yl)isoindolin-2-yl)-2-phenyl-N-(thiazol-2-yl)acetamide] | C (a % inhibition of between about 25% to about 50%)
9 | CN(C)C1CCN(C(=O)c2csc(NC(=O)[C@@H](c3ccccc3)N3Cc4ccccc4C3=O)n2)CC1 [Compound I-23, (R)-N-(4-(4-(dimethylamino)piperidine-1-carbonyl)thiazol-2-yl)-2-(1-oxoisoindolin-2-yl)-2-phenylacetamide] | A (a % inhibition of about 75%)
10 | Nc1cccc(-c2ccc3c(c2)C(=O)N([C@@H](C(=O)Nc2nccs2)c2ccccc2)C3)c1 [Compound I-73, (R)-2-(6-(3-aminophenyl)-1-oxoisoindolin-2-yl)-2-phenyl-N-(thiazol-2-yl)acetamide] | C (a % inhibition of between about 25% to about 50%)
11 | O=C(Nc1nccs1)[C@@H](c1ccccc1)N1Cc2cc(Nc3cccc(CN4CCCC4)c3)ccc2C1=O [Compound I-95, (R)-2-(1-oxo-5-((3-(pyrrolidin-1-ylmethyl)phenyl)amino)isoindolin-2-yl)-2-phenyl-N-(thiazol-2-yl)acetamide] | B (a % inhibition of between about 50% to about 75%)
12 | O=C(Nc1ccccc1F)[C@@H](c1ccccc1)N1Cc2ccccc2C1=O [Compound I-55, (R)-N-(2-fluorophenyl)-2-(1-oxoisoindolin-2-yl)-2-phenylacetamide] | B (a % inhibition of between about 50% to about 75%)
13 | O=C(NCCN1CCOCC1)c1cccc(-c2ccc3c(c2)C(=O)N([C@@H](C(=O)Nc2nccs2)c2ccccc2)C3)c1 [Compound I-90, (R)-N-(2-morpholinoethyl)-3-(3-oxo-2-(2-oxo-1-phenyl-2-(thiazol-2-ylamino)ethyl)isoindolin-5-yl)benzamide] | C (a % inhibition of between about 25% to about 50%)
14 | CN1CCN(c2ccc(-c3ccc4c(c3)CN([C@@H](C(=O)Nc3nccs3)c3ccccc3)C4=O)cc2)CC1 [Compound I-102, (R)-2-(5-(4-(4-methylpiperazin-1-yl)phenyl)-1-oxoisoindolin-2-yl)-2-phenyl-N-(thiazol-2-yl)acetamide] | B (a % inhibition of between about 50% to about 75%)

Second part, the molecule after the results:

Row | Activity (% inhibition) | Compound
15 | A (a % inhibition of about 75%) | O=C(Nc1ncc(Br)s1)[C@@H](c1ccccc1)N1Cc2ccccc2C1=O [Compound I-40, (R)-N-(5-bromothiazol-2-yl)-2-(1-oxoisoindolin-2-yl)-2-phenylacetamide]
16 | A (a % inhibition of about 75%) | O=C(Nc1ncnc2[nH]ncc12)[C@@H](c1ccccc1)N1Cc2ccccc2C1=O [Compound I-33, (R)-2-(1-oxoisoindolin-2-yl)-2-phenyl-N-(1H-pyrazolo[3,4-d]pyrimidin-4-yl)acetamide]
17 | A (a % inhibition of about 75%) | O=C(Nc1ncc(CCCN2CCOCC2)s1)[C@@H](c1ccccc1)N1Cc2ccccc2C1=O [Compound I-44, (R)-N-(5-(3-morpholinopropyl)thiazol-2-yl)-2-(1-oxoisoindolin-2-yl)-2-phenylacetamide]
18 | A (a % inhibition of about 75%) | Cc1cccc(C)c1NC(=O)[C@@H](c1ccccc1)N1Cc2ccccc2C1=O [Compound I-54, (R)-N-(2,6-dimethylphenyl)-2-(1-oxoisoindolin-2-yl)-2-phenylacetamide]
19 | A (a % inhibition of about 75%) | O=C(Nc1nccs1)[C@@H](Cc1ccccc1)N1Cc2ccccc2C1=O [Compound I-39, (R)-2-(1-oxoisoindolin-2-yl)-3-phenyl-N-(thiazol-2-yl)propanamide]
20 | A (a % inhibition of about 75%) | O=C(Nc1ccccc1)[C@@H](c1ccccc1)N1Cc2ccccc2C1=O [Compound I-51, (R)-2-(1-oxoisoindolin-2-yl)-N,2-diphenylacetamide]
21 | A (a % inhibition of about 75%) | O=C(O)c1ccc(-c2ccc3c(c2)C(=O)N([C@@H](C(=O)Nc2nccs2)c2ccccc2)C3)cc1 [Compound I-78, (R)-4-(3-oxo-2-(2-oxo-1-phenyl-2-(thiazol-2-ylamino)ethyl)isoindolin-5-yl)benzoic acid]
22 | A (a % inhibition of about 75%) | O=C(Nc1cc(C2CC2)n[nH]1)[C@@H](c1ccccc1)N1Cc2ccccc2C1=O [Compound I-26, (R)-N-(3-cyclopropyl-1H-pyrazol-5-yl)-2-(1-oxoisoindolin-2-yl)-2-phenylacetamide]
23 | A (a % inhibition of about 75%) | C[C@H](C(=O)Nc1nccs1)N1Cc2ccc(-c3ccc4[nH]ccc4c3)cc2C1=O [Compound I-116, (R)-2-(6-(1H-indol-5-yl)-1-oxoisoindolin-2-yl)-N-(thiazol-2-yl)propanamide]
24 | A (a % inhibition of about 75%) | Cc1csc(NC(=O)[C@@H](c2ccccc2)N2Cc3ccc(-c4ccc5[nH]ccc5c4)cc3C2=O)n1 [Compound I-131, (R)-2-(6-(1H-indol-5-yl)-1-oxoisoindolin-2-yl)-N-(4-methylthiazol-2-yl)-2-phenylacetamide]
25 | A (a % inhibition of about 75%) | O=C(Nc1ncc(Br)s1)[C@H](Cc1ccccc1)N1Cc2ccccc2C1=O [Compound I-49, (S)-N-(5-bromothiazol-2-yl)-2-(1-oxoisoindolin-2-yl)-3-phenylpropanamide]
26 | A (a % inhibition of about 75%) | O=C(Nc1cnc(Br)cn1)[C@@H](c1ccccc1)N1Cc2ccccc2C1=O [Compound I-27, (R)-N-(5-bromopyrazin-2-yl)-2-(1-oxoisoindolin-2-yl)-2-phenylacetamide]
